Where a SMILES comes first, the peptide text is derived from it. Bridges are numbered along the chain shown (N, C = ends). [ ]: non-standard residue; d: D form. The star is where a group is joined. Phe(2,4,6-Me3) = Cc1cc(C)c(C[C@H](N)C(=O)O)c(C)c1; Phe(3,5-F2) = N[C@@H](Cc1cc(F)cc(F)c1)C(=O)O; Myristoyl = CCCCCCCCCCCCCC(=O)*; Octanoyl = CCCCCCCC(=O)*
How the values were obtained:
[1] = tested on: Raw 264 cells; test: Inflammatory response in vitro: LPS-stimulated Raw 264 cells, cytokines (ELISA) and NO (Griess); assay type: cell-based; settings: LPS 1 μg/ml, peptide 100 nM, 24 hours; for NO (nitric oxide) level in supernatant: Griess test, basal 0.44; for IL-6 level in supernatant: basal 0; for TNFalpha level in supernatant: basal 0.48
Method: Raw 264 cells were cultured in complete DMEM medium until a confluence of 80% was reached. The cells were incubated either in the absence or presence of lipopolysaccharide (LPS, 1 μg/ml, from E. coli serotype 055:B5). The cells incubated in the absence of lipopolysaccharide were used as a reference (basal). The new cortistatin analogues were added at 100 nM concentration at the start of the culture. After 24 hours, the supernatants were collected and cytokine and nitric oxide levels were measured. The cytokine level (TNFalpha and IL-6) was established using a ELISA test. The quantity of nitric oxide (NO) was established using the Griess test. Equal volumes of supernatants from the culture (90 μl) and Griess reagents were mixed and absorbance was measured at 550 nm. The nitrite amount was calculated in relation to a standard NaNO2 curve.
For comparison, the values of cortistatin-14 (CST-14), somatostatin-14 (SOM-14) and three somatostatin analogues described in WO 2010/128098 A1 were evaluated: […]

[2] = tested on: T cells (splenocytes); test: Immune response in vitro: anti-CD3 stimulated splenocyte T cells, proliferation and cytokines; assay type: cell-based, C57B1I/6 mice; settings: anti-CD3 2 μg/ml, peptide 100 nM; for INFγ level in supernatant / IL-2 level in supernatant: 48 hours; for INFγ level in supernatant: activated 2.52, basal 0; for IL-2 level in supernatant: activated 3.22, basal 0.23; for proliferation ([3H]-thymidine incorporation): 72 hours, activated 9843, basal 640
Method: Splenocytes from 8 week old male C57B1I/6 mice were obtained after mechanical dissociation of cells, filtration through a nylon mesh and lysis of red blood cells. The splenocytes were incubated in complete DMEM medium until a density of 10^6 cells/ml. The non-adherent cells (formed in 80% by T cells) were used for measuring cytokines and for proliferation assays. The T cells were cultured in complete DMEM medium and stimulated with anti-CD3 antibodies (2 μg/ml) in the presence of different cortistatin analogues at a concentration of 100 nM. After 48 hours, the supernatants of the culture were isolated and the levels of cytokines (IFNγ and IL-2) were determined by using an ELISA test. In order to determine the effect of the different cortistatin analogues in proliferation, the cells were cultured for 72 hours and 0.5 μCi (0.0185 MBq)/well of [^3H]— thymidine was added for the last 8 hours of culture, the membranes were collected and the added [^3H]-Thymidine was measured using a scintillation counter.
For comparison, the values of cortistatin-14 (CST-14), somatostatin-14 (SOM-14) and three somatostatin analogues described in WO 2010/128098 A1 were determined: […]

[3] = Serum stability in 90% human serum at 37° C., RP-HPLC; assay type: in vitro ADME; settings: for main metabolite in serum: loss of C-terminal Lys
Method: The new compounds were incubated with 90% human serum at 37° C. Aliquots were extracted at different incubation times. Methanol was added to precipitate the proteins from the serum, it was centrifuged and the supernatant was subject to a chromatographic analysis using RP-HPLC (Gradient: 20-80% B in 30 min, B=0.07% TFA in acetonitrile). The disappearance of the initial product was analyzed using the area corresponding to the initial product and half-life time was calculated.

[4] = biological target: T1, somatostatin receptor sstr1 (UniProt P30872 1-391, limits assumed); test: radioligand competition vs 125I-Tyr11-somatostatin 14, CHO-K1 cells expressing sstr1, 0.1 nM to 10 uM
T1 construct: whole, on cells
Method: (§1) CHO-K1 cells in which each of the 5 somatostatin receptors (sstr1-sstr5) were expressed independently were used. […] The radioactivity obtained in the absence of somatostatin-14 was considered as the total binding and that obtained in the presence of 1 μM of somatostatin-14 was considered as the non-specific bond. The specific binding was considered as the difference between the complete binding and the non-specific binding.

[5] = biological target: T2, somatostatin receptor sstr2 (UniProt P30874 1-369, limits assumed); test: radioligand competition vs 125I-Tyr11-somatostatin 14, CHO-K1 cells expressing sstr2, 0.1 nM to 10 uM
T2 construct: whole, on cells
Method: as §1

[6] = biological target: T3, somatostatin receptor sstr3 (UniProt P32745 1-418, limits assumed); test: radioligand competition vs 125I-Tyr11-somatostatin 14, CHO-K1 cells expressing sstr3, 0.1 nM to 10 uM
T3 construct: whole, on cells
Method: as §1

[7] = biological target: T4, somatostatin receptor sstr5 (UniProt P35346 1-364, limits assumed); test: radioligand competition vs 125I-Tyr11-somatostatin 14, CHO-K1 cells expressing sstr5, 0.1 nM to 10 uM
T4 construct: whole, on cells
Method: as §1

T4 sequence (P35346 whole entry): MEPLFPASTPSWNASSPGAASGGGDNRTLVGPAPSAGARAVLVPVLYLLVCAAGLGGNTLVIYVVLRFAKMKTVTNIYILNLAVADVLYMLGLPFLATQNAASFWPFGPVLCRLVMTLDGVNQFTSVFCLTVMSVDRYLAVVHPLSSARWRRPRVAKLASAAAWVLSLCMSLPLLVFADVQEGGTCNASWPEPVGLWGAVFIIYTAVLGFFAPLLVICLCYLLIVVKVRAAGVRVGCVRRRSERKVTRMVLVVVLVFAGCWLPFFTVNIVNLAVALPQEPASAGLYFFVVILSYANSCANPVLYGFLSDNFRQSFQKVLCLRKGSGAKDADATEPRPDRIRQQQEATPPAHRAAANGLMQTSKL
T2 sequence (P30874 whole entry): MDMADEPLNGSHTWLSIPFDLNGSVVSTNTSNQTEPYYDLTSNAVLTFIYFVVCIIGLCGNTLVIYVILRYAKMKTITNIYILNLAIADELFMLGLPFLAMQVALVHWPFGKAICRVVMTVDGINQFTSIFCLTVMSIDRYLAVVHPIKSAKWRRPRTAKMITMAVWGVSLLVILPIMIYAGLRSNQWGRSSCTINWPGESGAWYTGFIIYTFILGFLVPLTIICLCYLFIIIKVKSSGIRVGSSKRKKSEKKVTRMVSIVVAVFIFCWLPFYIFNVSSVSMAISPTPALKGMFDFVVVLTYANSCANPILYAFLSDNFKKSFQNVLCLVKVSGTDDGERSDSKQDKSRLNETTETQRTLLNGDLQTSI
T1 sequence (P30872 whole entry): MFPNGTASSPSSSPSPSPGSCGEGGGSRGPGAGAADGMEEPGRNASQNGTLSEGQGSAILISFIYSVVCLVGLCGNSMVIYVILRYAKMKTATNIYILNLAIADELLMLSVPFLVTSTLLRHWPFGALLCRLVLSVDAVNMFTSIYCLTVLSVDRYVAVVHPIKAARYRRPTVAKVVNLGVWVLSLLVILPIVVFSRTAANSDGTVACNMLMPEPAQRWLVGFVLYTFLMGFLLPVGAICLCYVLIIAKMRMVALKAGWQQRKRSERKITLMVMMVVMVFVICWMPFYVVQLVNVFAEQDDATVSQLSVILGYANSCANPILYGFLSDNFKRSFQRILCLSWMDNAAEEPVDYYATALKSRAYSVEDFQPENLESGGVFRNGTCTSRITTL
T3 sequence (P32745 whole entry): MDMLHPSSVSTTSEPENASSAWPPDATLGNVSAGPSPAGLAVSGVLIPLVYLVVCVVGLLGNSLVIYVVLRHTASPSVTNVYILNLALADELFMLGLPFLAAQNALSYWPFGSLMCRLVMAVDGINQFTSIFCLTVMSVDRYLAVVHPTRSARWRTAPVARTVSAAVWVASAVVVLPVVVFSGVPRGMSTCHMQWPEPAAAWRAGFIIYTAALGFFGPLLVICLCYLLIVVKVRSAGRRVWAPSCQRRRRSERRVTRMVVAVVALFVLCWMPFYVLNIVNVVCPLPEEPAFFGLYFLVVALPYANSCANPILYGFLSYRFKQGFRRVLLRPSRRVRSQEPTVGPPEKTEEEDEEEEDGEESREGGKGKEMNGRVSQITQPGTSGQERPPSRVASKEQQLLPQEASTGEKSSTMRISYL

Molecule | half-life [3] [h] | percentage of inhibition of specific binding [4] [%] | percentage of inhibition of specific binding [5] [%] | percentage of inhibition of specific binding [6] [%] | percentage of inhibition of specific binding [7] [%] | other results
C[C@@H](O)[C@@H]1NC(=O)[C@H](CCCCN)NC(=O)[C@H](Cc2c[nH]c3ccccc23)NC(=O)[C@H](Cc2ccccc2)NC(=O)[C@H](Cc2ccccc2)NC(=O)[C@H](CC(N)=O)NC(=O)[C@H](CCCCN)NC(=O)[C@@H](NC(=O)[C@@H]2CCCN2)CSSC[C@@H](C(=O)N[C@@H](CCCCN)C(=O)O)NC(=O)[C@H](CO)NC(=O)[C@H](CO)NC(=O)[C@H](Cc2ccccc2)NC1=O [CST-14] (H-PCKNFFWKTFSSCK-OH; disulfide 2-13) | – | – | – | – | – | NO (nitric oxide) level in supernatant [1]: 3.08 ng/mL; IL-6 level in supernatant [1]: 3.78 ng/mL; TNFalpha level in supernatant [1]: 3.17 ng/mL; INFγ level in supernatant [2]: 1.13 ng/mL; IL-2 level in supernatant [2]: 1.52 ng/mL; proliferation ([3H]-thymidine incorporation) [2]: 5500; main metabolite in serum [3]: compound 14
CCCCCCCC(=O)N1CCC[C@H]1C(=O)N[C@H]1CSSC[C@@H](C(=O)N[C@@H](CCCCN)C(=O)O)NC(=O)[C@H](CO)NC(=O)[C@H]([C@@H](C)O)NC(=O)[C@H](Cc2ccccc2)NC(=O)[C@H]([C@@H](C)O)NC(=O)[C@H](CCCCN)NC(=O)[C@@H](Cc2c[nH]c3ccccc23)NC(=O)[C@H](Cc2ccccc2)NC(=O)[C@H](Cc2c(C)cc(C)cc2C)NC(=O)[C@H](CC(N)=O)NC(=O)[C@H](CCCCN)NC1=O [Compound 4, Octanoyl-L-Pro-c[L-Cys-L-Lys-L-Asn-L-Msa-L-Phe-D-Trp-L-Lys-L-Thr-L-Phe-L-Thr-L-Ser-L-Cys-]-L-Lys-OH] | 0.35 | – | – | – | – | main metabolite in serum [3]: compound 5
C[C@H](N)C(=O)NCC(=O)N[C@H]1CSSC[C@@H](C(=O)O)NC(=O)[C@H](CO)NC(=O)[C@H]([C@@H](C)O)NC(=O)[C@H](Cc2ccccc2)NC(=O)[C@H]([C@@H](C)O)NC(=O)[C@H](CCCCN)NC(=O)[C@@H](Cc2c[nH]c3ccccc23)NC(=O)[C@H](Cc2cc(F)cc(F)c2)NC(=O)[C@H](Cc2ccccc2)NC(=O)[C@H](CC(N)=O)NC(=O)[C@H](CCCCN)NC1=O [Compound 6, H-L-Ala-Gly-c[L-Cys-L-Lys-L-Asn-L-Phe-L-Dfp-D-Trp-L-Lys-L-Thr-L-Phe-L-Thr-L-Ser-L-Cys]-OH] | 3.8 | – | – | – | – | –
H2N-AGc[CKNFFWKTFTSC]-OH (AGCKNFFWKTFTSC; disulfide cyclised; Somatostatin-14; DISULFID (3)..(14)) [SST-14, endogenous peptide somatostatin-14] | – | – | – | – | – | NO (nitric oxide) level in supernatant [1]: 4.32 ng/mL; IL-6 level in supernatant [1]: 4.2 ng/mL; TNFalpha level in supernatant [1]: 5.21 ng/mL; INFγ level in supernatant [2]: 2.31 ng/mL; IL-2 level in supernatant [2]: 3.14 ng/mL; proliferation ([3H]-thymidine incorporation) [2]: 9936
CCCCCCCC(=O)N1CCC[C@H]1C(=O)N[C@H]1CSSC[C@@H](C(=O)O)NC(=O)[C@H](CO)NC(=O)[C@H]([C@@H](C)O)NC(=O)[C@H](Cc2ccccc2)NC(=O)[C@H]([C@@H](C)O)NC(=O)[C@H](CCCCN)NC(=O)[C@@H](Cc2c[nH]c3ccccc23)NC(=O)[C@H](Cc2ccccc2)NC(=O)[C@H](Cc2c(C)cc(C)cc2C)NC(=O)[C@H](CC(N)=O)NC(=O)[C@H](CCCCN)NC1=O [Compound 5, Octanoyl-L-Pro-c[L-Cys-L-Lys-L-Asn-L-Msa-L-Phe-D-Trp-L-Lys-L-Thr-L-Phe-L-Thr-L-Ser-L-Cys]-OH] | 35 | – | – | – | – | –
Myristoyl-DRMPCRN[Phe(2,4,6-Me3)]FWKTFTSCK-OH (disulfide 5-16; SMILES CCCCCCCCCCCCCC(=O)N[C@@H](CC(=O)O)C(=O)N[C@@H](CCCNC(=N)N)C(=O)N[C@@H](CCSC)C(=O)N1CCC[C@H]1C(=O)N[C@H]1CSSC[C@@H](C(=O)N[C@@H](CCCCN)C(=O)O)NC(=O)[C@H](CO)NC(=O)[C@H]([C@@H](C)O)NC(=O)[C@H](Cc2ccccc2)NC(=O)[C@H]([C@@H](C)O)NC(=O)[C@H](CCCCN)NC(=O)[C@H](Cc2c[nH]c3ccccc23)NC(=O)[C@H](Cc2ccccc2)NC(=O)[C@H](Cc2c(C)cc(C)cc2C)NC(=O)[C@H](CC(N)=O)NC(=O)[C@H](CCCNC(=N)N)NC1=O) | – | > 50 | > 50 | > 50 | > 50 | –
Octanoyl-PCKN[Phe(2,4,6-Me3)]F[dW]KTFTSC-OH (disulfide 2-13; SMILES CCCCCCCC(=O)N1CCC[C@H]1C(=O)N[C@H]1CSSC[C@@H](C(=O)O)NC(=O)[C@H](CO)NC(=O)[C@H]([C@@H](C)O)NC(=O)[C@H](Cc2ccccc2)NC(=O)[C@H]([C@@H](C)O)NC(=O)[C@H](CCCCN)NC(=O)[C@@H](Cc2c[nH]c3ccccc23)NC(=O)[C@H](Cc2ccccc2)NC(=O)[C@H](Cc2c(C)cc(C)cc2C)NC(=O)[C@H](CC(N)=O)NC(=O)[C@H](CCCCN)NC1=O) | – | > 50 | > 50 | > 50 | > 50 | –
H-DRMPCRN[Phe(2,4,6-Me3)]FWKTFTSCK-OH (disulfide 5-16; SMILES CSCC[C@H](NC(=O)[C@H](CCCNC(=N)N)NC(=O)[C@@H](N)CC(=O)O)C(=O)N1CCC[C@H]1C(=O)N[C@H]1CSSC[C@@H](C(=O)N[C@@H](CCCCN)C(=O)O)NC(=O)[C@H](CO)NC(=O)[C@H]([C@@H](C)O)NC(=O)[C@H](Cc2ccccc2)NC(=O)[C@H]([C@@H](C)O)NC(=O)[C@H](CCCCN)NC(=O)[C@H](Cc2c[nH]c3ccccc23)NC(=O)[C@H](Cc2ccccc2)NC(=O)[C@H](Cc2c(C)cc(C)cc2C)NC(=O)[C@H](CC(N)=O)NC(=O)[C@H](CCCNC(=N)N)NC1=O) | – | > 50 | > 50 | > 50 | > 50 | –
H-PCKN[Phe(3,5-F2)]FWKT[Phe(2,4,6-Me3)]SSCK-NH2 (disulfide 2-13) | – | > 50 | > 50 | > 50 | > 50 | –

Reference: US12297294B2, “Cortistatin analogues for the treatment of inflammatory and/or immune diseases” (BCN PEPTIDES, S.A., priority 2013, dated 2025)
